Measurements taken from US5880099A, “Inositol polyphosphates and methods of using same” (The Regents of the University of California, priority 1997, dated 1999).

Assays:
Format in all cases: cell-based, human
[1] = system: T84 cells (EGF induced inhibition of chloride ion secretion); experiment: EGF induced inhibition of carbachol-stimulated chloride ion secretion in T84 cells and its reversal; conditions: EGF 16.3 nM, carbachol 100 μM
Description: After an additional 15 min incubation, 100 μM carbachol was added to acutely elevate intracellular calcium concentrations. Controls also were stimulated with carbachol but were not pretreated with EGF. Data are the means of duplicate measurements from a representative experiment (total of three experiments).

[2] = system: colonic epithelial T84 cells (calcium-mediated chloride ion secretion); experiment: Inhibition of calcium-mediated chloride ion secretion (Table I summary)
How it was run: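 T84 monolayers (passages 18-48, 7-10 days on permeable supports) preincubated with 100, 200 or 400 μM Bt2-Ins(3,4,5,6)P4/AM for 30 min before Ussing-chamber mounting. After another 30 min, 0.1 mM histamine added; chloride secretion recorded as voltage-clamped short circuit current (Isc).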

[3] = system: T84 cells (histamine-stimulated chloride ion secretion); experiment: Histamine-stimulated chloride ion secretion (short circuit current) in T84 monolayers
Description: Enantiomerically pure 1,2-Bt2 -Ins(3,4,5,6)P4 /AM was synthesized to determine if 1,2-Bt2 -Ins(3,4,5,6)P4 /AM mediates the uncoupling of chloride ion secretion from intracellular calcium concentrations. […] After 7-10 days of incubation on SNAP-WELLS (Corning Costar; Cambridge, Mass.), monolayers had formed tight junctions. Cell monolayers were preincubated with 100, 200 or 400 μM Bt2 -Ins(3,4,5,6)P4 /AM for 30 min prior to mounting. After an additional 30 min, 0.1 mM histamine was added and chloride ion secretion was monitored. Chloride ion secretion was measured as short circuit current (Isc) across T84 monolayers grown to confluence and mounted in Ussing chambers equipped with voltage clamps (Physiologic Instruments; San Diego, Calif.). Data was acquired and analyzed using "Acquire and Analyze" software (Physiologic Instruments).
Initial studies were directed towards understanding structural determinants of Ins(3,4,5,6)P4 responsible for the inhibitory effect on calcium-mediated chloride ion secretion. A series of cell permeable inositol polyphosphate derivatives were synthesized. These derivatives contained either one or two non-hydrolyzable chemical groups on the 1, 2 or 3 position. T84 monolayers were preincubated for 30 minutes with 200 μM of 2-Bt-1-Me-Ins(3,4,5,6)P4 /AM, Me2 -Ins(3,4,5,6)P4 /AM, Me2 -Ins(1,4,5,6)P4 /AM or 2-Bt-3-Me-Ins(1,4,5,6)P4 /AM.
Following the incubation, cells were mounted in Ussing chambers. Calcium-mediated chloride ion secretion was stimulated with histamine (10^-4 M). Control values were the response to histamine in coincubated monolayers. Data are represented as mean peak ΔIsc ±SEM, expressed as % control for 8 to 10 experiments. Significant differences were identified using the Student's two-tailed t test.

[4] = system: T84 cells (EGF inhibition of cyclic AMP-mediated chloride ion secretion); experiment: EGF inhibition of cyclic AMP-mediated chloride ion secretion, reversal
[5] = system: T84 cells (PtdInsP3-mediated decrease in chloride ion secretion); experiment: Reversal of PtdInsP3-mediated decrease in chloride ion secretion in T84 cells; conditions: FIG. 7d, 7e
Description: T84 cells also were preincubated with cell permeable Ins(1,4,5,6)P4 derivatives to determine whether Ins(1,4,5,6)P4 can reverse PtdInsP3 -mediated decreases in chloride ion secretion.

intracellular calcium = experiment: Intracellular calcium concentration in treated cells
Description: Elevation in intracellular calcium concentration leads to increased chloride ion secretion. To ensure that none of the effects of the inositol polyphosphate derivatives on chloride ion secretion were due to changes in calcium levels, the concentration of intracellular calcium was measured in cells treated with the inositol polyphosphate derivatives. […] None of the compounds tested altered intracellular calcium levels by themselves or modified levels of intracellular calcium stimulated with carbachol or thapsigargin. Therefore, the effects of inositol polyphosphate derivatives on chloride ion secretion are not due to any effect on intracellular calcium concentrations.

[6] = system: T84 cells (carbachol-stimulated chloride ion secretion); experiment: Carbachol-stimulated (calcium-mediated) chloride ion secretion in T84 cells
Description: The cell permeable derivative D,L-Bt3 -Ins(1,3,4)P3 /AM was synthesized. Colonic epithelial T84 cells were preincubated for 30 min with 400 μM D,L-Bt3 -Ins(1,3,4)P3 /AM prior to mounting in Ussing chambers and measuring ΔIsc. At 10 min, carbachol (10^-4 M) was added to transiently stimulate calcium-mediated chloride ion secretion. Data were the average of 8 experiments with p<0.04, unpaired, two-sided student's t-test. […]

Ins(3,4,5,6)P4 = experiment: Intracellular Ins(3,4,5,6)P4 level in (3H)-inositol labeled T84 cells; conditions: 400 μM D,L-Bt3 -Ins(1,3,4)P3 /AM

CCCC(=O)O[C@@H]1[C@H](OC(=O)CCC)[C@@H](OP(=O)(OCOC(C)=O)OCOC(C)=O)[C@H](OP(=O)(OCOC(C)=O)OCOC(C)=O)[C@@H](OP(=O)(OCOC(C)=O)OCOC(C)=O)[C@@H]1OP(=O)(OCOC(C)=O)OCOC(C)=O [Bt2 -Ins(1,4,5,6)P4 /AM, 2,3-di-O butyryl-myo-inositol 1,4,5,6-TKphosphate oct (acetoxymethyl) ester]
effect on carbachol-stimulated chloride ion secretion / EGF induced inhibition (in words) [1]: enhances chloride ion secretion
effect on carbachol-stimulated chloride ion secretion / EGF induced inhibition (in words) ([1]; listed as Bt2 Ins(1,4,5,6)P4 /AM): significantly reversed EGF induced inhibition of chloride ion secretion
Mechanism and Inositol Polyphosphate Pathway Affected ([2]; pathway: PtdInsP3): Antagonist of
activity at 400 µM ([3]; Homo sapiens, T84, 0.5 h, 400 μM compound alone, mean ± SEM, read-out: Peak ΔIsc (% Control) after histamine (100 μM)): 138 ± 20.7%
effect on histamine-stimulated / calcium-mediated chloride ion secretion (in words) ([3]; T84 cells): did not inhibit chloride ion secretion and in fact led to a slight increase in chloride ion secretion
reversal of EGF inhibition of cyclic AMP-mediated chloride ion secretion (in words) [4]: did not reverse EGF inhibition of cyclic AMP-mediated chloride ion secretion
effect on PtdInsP3-mediated decrease in chloride ion secretion (in words) [5]: enhances chloride ion secretion
effect on intracellular calcium (in words) (intracellular calcium; alone): did not elevate intracellular calcium
effect on calcium response to thapsigargin or carbachol (in words) (intracellular calcium; thapsigargin or carbachol stimulated): did not elevate intracellular calcium or the calcium response to thapsigargin

CCCC(=O)O[C@@H]1[C@@H](OC(=O)CCC)[C@H](OP(=O)(OCOC(C)=O)OCOC(C)=O)[C@@H](OP(=O)(OCOC(C)=O)OCOC(C)=O)[C@@H](OC(=O)CCC)[C@H]1OP(=O)(OCOC(C)=O)OCOC(C)=O (relative stereo) [D,L-Bt3 -Ins(1,3,4)P3 /AM, D,L-2,5,6-tri-O-butyryl-myo-inositol 1,3,4-trisphosphate hex (acetoxymethyl) ester]
Mechanism and Inositol Polyphosphate Pathway Affected ([2]; pathway: Ins (3,4,5,6)P4): Agonist of
peak ΔIsc ([6]; 400 μM, 30 min preincubation, carbachol 10^-4 M, 8 experiments, control 15.2±2.8, p<0.04): 7.9±1.6
inhibition at 400 µM ([6]; Homo sapiens, 0.5 h, 400 μM D,L-Bt3 -Ins(1,3,4)P3 /AM, read-out: decrease of calcium-mediated chloride ion secretion): ~50%
effect on carbachol-stimulated / calcium-mediated chloride ion secretion (in words) ([6]; T84 cells, preincubation): inhibits calcium-mediated chloride ion secretion
increase in Ins(3,4,5,6)P4 (Ins(3,4,5,6)P4): three-fold increase
